Laboratory results reported in a melting point compilation (Tetko et al.; mined from patent text by program, amines drawn as free bases though some values may be those of a salt).

Compared with `Cc1cc(C)c(-n2ccc3c(OCc4ccc(C(F)(F)F)cc4)nn(C)c(=O)c32)c(C)c1`, `COc1ccc(Cn2cc(C(F)(F)F)ccc2=O)cc1` is lower in melting point: 178 to 180 °C for the first, 84.2 to 86.1 °C for the second.

First: O=S1(=O)CS(=O)(=O)OCO1
Second: O=C1CS(=O)(=O)c2ccccc21
The melting point of the first is higher: 146 °C for the first, 133 to 134 °C for the second.

Compared with `CCCCCCCCCCCCCCCCCCOC(=O)c1ccc(CBr)cc1`, `CCCCCCCCCCCCc1ccc(N)c([N+](=O)[O-])c1` is higher in melting point: 53 to 55 °C for the first, 69 to 71 °C for the second.

First: CC(C)N1CCN(C(=O)c2cc([N+](=O)[O-])cc(C(F)(F)F)c2)CC1
Second: O=C(c1cc([N+](=O)[O-])ccc1Nc1ccncc1)N1CCCCC1
The melting point of the first is lower: 70.7 °C for the first, 194 to 196 °C for the second.

Compared with `Cc1c(OCC(F)(F)F)ccnc1CSc1nc2ccccc2n1NC(=O)OC(C)(C)C`, `CCOc1ccc(-c2cc(C(F)(F)F)n3ncc(-c4ccnc(C)c4)c3n2)cc1C(F)(F)F` is higher in melting point: 153 to 155 °C for the first, 250 °C for the second.

First: CC1c2cc(OCC(=O)O)c(Cl)c(Cl)c2C(=O)C1(C)Cl (configuration not stated)
Second: CC(=O)c1cc2c(c(Cl)c1O)OC(C(O)=NO)C2 (configuration not stated)
The melting point of the first is lower: 179 to 187 °C for the first, 234 to 235 °C for the second.

First: ClC(Cl)c1cccc2nnsc12
Second: CCCN(CCC)c1nc2ccccc2n2cnnc12
The melting point of the first is lower: 131 to 133 °C for the first, 240 to 242 °C for the second.

First: CS(=O)(=O)c1cc(C(F)(F)F)ns1
Second: CC(=C(Br)Br)c1cn(-c2c(Cl)cc(C(F)(F)F)cc2Cl)nc1C#N
The melting point of the first is lower: 93 to 94 °C for the first, 119 to 122 °C for the second.

First: CCOC(=O)COc1c(-c2ccccc2)cc(O)cc1-c1ccccc1
Second: O=C(COCc1ccccc1)Nc1ccc(OC(=O)COCc2ccccc2)cc1
The melting point of the first is higher: 91 to 93 °C for the first, 55.5 to 58.5 °C for the second.

First: CN(C)c1ccccc1CC(=O)N1C[C@@H]2SCCC(c3ccccc3)(c3ccccc3)[C@@H]2C1 (racemic)
Second: OC(c1ccccc1)(c1ccc(Cl)cc1)c1nccn1Cc1ccccc1 (configuration not stated)
The melting point of the first is lower: 163 °C for the first, 174 to 175 °C for the second.

First: COc1cc(CCC(=O)CC(=O)c2ccccc2)ccc1O
Second: O=C(O)c1ccc(COc2ccccc2)nc1C(=O)O
The melting point of the first is lower: 76 to 78 °C for the first, 270 °C for the second.

Compared with `CCOC(=O)c1c(C(F)(F)F)nc(C(F)(F)Cl)c(C(=O)O)c1OCC`, `CCOC(=O)c1ccc(NC(C)=O)cc1C(=O)OCC` is higher in melting point: 81 to 83 °C for the first, 118 to 121 °C for the second.

First: COc1c(C)c2c(c(O)c1C/C=C(\C)C1CCCC1C(=O)O)C(=O)OC2 (configuration not stated)
Second: COC(=O)[C@H]1[C@@H]2CC[C@@H](C2)[C@@H]1C(=O)O
The melting point of the first is higher: 157 to 158 °C for the first, 59 to 60 °C for the second.

First: CN1CCC(c2c[nH]c3ccc([N+](=O)[O-])cc23)C(F)C1 (configuration not stated)
Second: Cc1cc([N+](=O)[O-])c2[nH]ccc(=O)c2c1
The melting point of the first is lower: 105 to 107 °C for the first, 209 to 212 °C for the second.

Compared with `CCCCCCCCCCCC(=O)NCCOCCn1c(CCOC)nc2c(N)nc3ccccc3c21`, `CCCc1nn(C)c2c(=O)[nH]c(-c3ccccc3OCC)nc12` is higher in melting point: 80 to 83 °C for the first, 143 to 146 °C for the second.

Compared with `CNCCC(O)(COc1ccccc1)c1ccccc1` (configuration not stated), `Cc1c2c(nc3ccccc13)CCN(C(=O)Oc1ccccc1)CC2` is higher in melting point: 98 to 99 °C for the first, 150 °C for the second.

Compared with `CSc1ccc(-c2[nH]c3cccc4c3c2CCNC4=O)cc1`, `CCOC(=O)c1c[nH]c(Br)c1-c1cccc(F)c1` is lower in melting point: 250 to 251 °C for the first, 114 to 117 °C for the second.

First: CON=C(C(=O)O)c1cc2sccc2s1
Second: CC[C@H]1[C@@H](O)C(F)(F)C(=O)N1c1ccc(C#N)c(OC)c1
The melting point of the first is lower: 116 to 117 °C for the first, 161 to 164 °C for the second.

Compared with `CCCCCCC(C)Oc1cc(O)c2c(C)c(CCC(=O)OCC)c(=O)oc2c1` (configuration not stated), `CCCOc1ccc(F)c2c1c(CCN(C)C)cn2CC` is lower in melting point: 116 to 117 °C for the first, 49 to 50 °C for the second.

First: CC(=O)C1(COC(=O)Oc2ccccc2)CC2C=CC1CC2 (configuration not stated)
Second: CCCNC(=O)N(Cc1ccccc1)NC(=O)OC(C)(C)C
The melting point of the first is lower: 58 to 60 °C for the first, 123 to 124 °C for the second.

First: O=C(CN1CCN(c2ccc([N+](=O)[O-])cc2)CC1)Nc1ccc(Nc2ccccc2)cc1
Second: Clc1ccc2c(c1)C(c1ccccc1)=NCc1nnc(CN3CCCCC3)n1-2
The melting point of the first is higher: 212 to 213 °C for the first, 202 to 203 °C for the second.

Compared with `O=C(NCC12CCCN(CCC1)C2)c1c[nH]c2ccccc12`, `C1=CCCCCN(CCc2nccc3c2[nH]c2ccccc23)CCCC1` is lower in melting point: 139 to 142 °C for the first, 77 to 82 °C for the second.

Compared with `Cn1c(Cl)c(C#N)c2ccccc21`, `Cc1nc2c(C=Cc3ccccc3)cccn2c1N=O` is higher in melting point: 112 to 114 °C for the first, 158 to 160 °C for the second.

First: CCCCCCCCC#CCC#CCC#CCSCC(=O)NCC
Second: COc1cc(C)nc(NC(=O)NS(=O)(=O)Cc2ccccc2-c2nnc(SC)o2)n1
The melting point of the first is lower: 59 °C for the first, 194 to 196 °C for the second.

First: O=Cc1cc(-c2ccc(F)cc2F)ccc1OC(F)(F)F
Second: CN(C)CCC(c1ccncc1)S(=O)(=O)c1ccc(Cl)cc1 (configuration not stated)
The melting point of the first is lower: 39 to 41 °C for the first, 91 to 92 °C for the second.

First: CC(=O)OC(C)OC(=O)[C@H](Cc1ccc(-c2c(C)n(C)c(=O)n(C)c2=O)cc1)NC(=O)c1c(C)cccc1Cl (some centres not stated)
Second: Cc1cnc2c(S(=O)(=O)N[C@@H](CCCc3cn(C(c4ccccc4)(c4ccccc4)c4ccccc4)cn3)C(=O)OC(C)(C)C)cccc2c1
The melting point of the first is higher: 84 to 88 °C for the first, 56 °C for the second.
